According to patent US20050129621A1, “Aerosol formulations for pulmonary administration of medicaments to produce a systemic effect” (Chiesi Farmaceutici S.P.A., priority 2002, published 2005):
Where two headings read alike, the source gives them in different places.

Legend:
[1] = Cascade impaction studies (Andersen Cascade Impactor), aerosol delivery characteristics; type: physicochemical
Description: All impaction studies were conducted with formulations contained in cut edge anodised aluminium cans fitted with 50 μl or 100 μl valves. The studies were carried out using an Andersen Cascade Impactor (ACI) fitted with a USP XXII metal throat entry port.
The HFA solution formulations were discharged into the ACI through actuators having an orifice diameter from 0.14 to 0.45 mm. Deposition of the drug on each ACI plate was determined by high pressure liquid chromatography (HPLC).
MMAD values and corresponding geometric standard deviation (GSD) were calculated from plots of the cumulative percentage undersize of drug collected on each ACI plate (probit scale), against the upper cut off diameter for each respective ACI plate (log10 scale).
The following parameters were determined: the metered dose, which is the sum of the dose delivered through the Andersen apparatus plus the active ingredient residue deposited on the device actuator; the cumulative amount of active particles deposited on the various ACI stages; the amount on the actuator; the amount in the adaptor and in the throat (adp/throat); the fme particle dose or respirable dose (FPD) which is the amount of particles deposited on stages 3 to filter of the ACI and corresponds to the amount of particles of size less than 4.7 μm; the fine particle fraction or respirable fraction which is the ratio between the respirable dose and the dose delivered ex-actuator.
The cans were provided with actuators with an orifice diameter of 0.22 mm.
Two ACI deposition determinations were performed with each formulation. Twenty shots were discharged into the ACI.
The cans were provided with actuators with an orifice diameter of 0.14 mm.
Two ACI deposition determinations were performed with the formulation. Ten shots were discharged into the ACI.

[2] = Stability study of pMDI formulations in coated aluminum cans, HPLC; details: 25° C., six months
Description: The recovery of diisobutyryl apomorphine was determined by HPLC.
The leuprolide acetate content was determined by HPLC.

[3] = Solubility studies in HFA pMDI formulations (visual assessment for crystal growth)
Description: The assembly of the pMDI cans was carried out using hand operated crimping and filling equipment. Formulations were prepared by accurately weighing the required quantity of drug into the can or vial. The appropriate volume of ethanol and the other co-solvent if required in the formulation, was then added. The valve was crimped onto the vial/can and the assembled vial/can was ultra-sonicated for approximately 10 minutes. The HFA propellant was filled through the valve and the pMDI was ultra-sonicated for a further 10 minutes. […] Final compositions were calculated as percentage w/v for the active ingredient and as percentage w/w for the co-solvents.
All solubility investigations were conducted in plastic coated glass pMDI vials fitted with continuous spray valves. Once produced the medicament-HFA solution pMDIs were stored in refrigerator at 4° C. (±0.1° C.). The pMDI vials were removed periodically and the vials assessed visually with the aid of a polarized light unit for crystal growth.

[4] = 0.5% and 1% w/v in HFA 134a, 5% w/w ethanol, 0.1% w/w glycerol, actuator orifice 0.22 mm
[5] = 0.04% w/v (40 μg/100 μl) in HFA 134a, 15% w/w ethanol, 2% w/w water, actuator orifice 0.14 mm
[6] = 0.08% w/v (80 μg/100 μl) in HFA 134a, 18% w/w ethanol, 3% w/w water, actuator orifice 0.14 mm

| Compound | MMAD [1, 4] | amount of active particles of sizes from 0.43 to 3.3 μm [1, 4] [%] | fine particle fraction (FPF) [1, 4] | degradation ([2]; formulation of Example 1, coated aluminum cans upright and inverted) | difference between cans stored upright and inverted ([2]; formulation of Example 1, coated aluminum cans) | concentration at which formulations are soluble ([3]; in HFA 134a or HFA 227, various percentages of ethanol, stored at 4° C.) | MMAD [1, 5] | amount of active particles of sizes from 0.43 to 3.3 μm [1, 5] [%] | fine particle fraction (FPF) [1, 5] | MMAD [1, 6] | amount of active particles of sizes from 0.43 to 3.3 μm [1, 6] [%] | fine particle fraction (FPF) [1, 6] | change of solubility when water was added [3] | concentration at which formulations are soluble [3] |
| --- | --- | --- | --- | --- | --- | --- | --- | --- | --- | --- | --- | --- | --- | --- |
| CC(C)C(=O)Oc1ccc2c(c1OC(=O)C(C)C)-c1cccc3c1[C@@H](C2)N(C)CC3 [diisobutyryl apomorphine] | about 2.0 μm | ≥ 60 | 70-75% | minimal degradation | no significant difference | up to 1 % w/v |  |  |  |  |  |  |  |  |
| CCNC(=O)[C@@H]1CCCN1C(=O)[C@H](CCCNC(=N)N)NC(=O)[C@H](CC(C)C)NC(=O)[C@@H](CC(C)C)NC(=O)[C@H](Cc1ccc(O)cc1)NC(=O)[C@H](CO)NC(=O)[C@H](Cc1c[nH]c2ccccc12)NC(=O)[C@H](Cc1c[nH]cn1)NC(=O)[C@@H]1CCC(=O)N1 [leuprolide acetate] |  |  |  |  |  |  | about 1.0 μm | ≥ 61 | at least 72% | about 1.3 μm | ≥ 52 | at least 59% | significant increase | up to 0.26 % w/v |
